pIC50: −log10 of the molar value.
Columns and labels:
Test in all cases: cells
A549 = details: Homo sapiens, A549, 72 h
Description: Antiproliferative activity against human A549 cells assessed as reduction in cell viability after 72 hrs by MTT assay

HK-2 = details: Homo sapiens, HK-2, 72 h
Description: Cytotoxicity against human HK2 cells assessed as reduction in cell viability after 72 hrs by MTT assay

MDA-MB-231 = details: Homo sapiens, MDA-MB-231, 72 h
Description: Antiproliferative activity against human MDA-MB-231 cells assessed as reduction in cell viability after 72 hrs by MTT assay

Structure (SMILES)	pIC50 (A549)	pIC50 (HK-2)	pIC50 (MDA-MB-231)
CP(C)(=O)c1ccccc1Nc1nc(Nc2cnn(C3CCOCC3)c2)nc2[nH]ccc12	5.15	4.84	5.26
CNC(=O)c1ccccc1Nc1nc(Nc2ccc(N3CCOCC3)cc2OC)ncc1Cl	5.99	5.09	5.37
CNC(=O)c1ccc(Nc2nc(Nc3ccccc3P(C)(C)=O)c3cc[nH]c3n2)cc1	5.46	5.04	5.38
CP(C)(=O)c1ccccc1Nc1nc(Nc2ccc(C(=O)NC3CCOCC3)cc2)nc2[nH]ccc12	5.43	5.01	5.19
CP(C)(=O)c1ccccc1Nc1nc(Nc2ccc(C(=O)N[C@H]3CCCNC3)cc2)nc2[nH]ccc12	5.61	< 4.60	4.91
CP(C)(=O)c1ccccc1Nc1nc(Nc2ccc(C(=O)NC3CCNCC3)c(F)c2)nc2[nH]ccc12	5.79	4.66	5.38
CP(C)(=O)c1ccccc1Nc1nc(Nc2ccc(C(=O)N3CCNCC3)cc2)nc2[nH]ccc12	5.01	< 4.60	5.06
CCNS(=O)(=O)c1ccc(Nc2nc(Nc3ccccc3P(C)(C)=O)c3cc[nH]c3n2)cc1	5.99	5.32	5.88
COCCn1cc(Nc2nc(Nc3ccccc3P(C)(C)=O)c3cc[nH]c3n2)cn1	4.76	< 4.60	5.09
CP(C)(=O)c1ccccc1Nc1nc(Nc2cnn(C3CCNCC3)c2)nc2[nH]ccc12	4.84	< 4.60	4.85
COc1cc(C(=O)NC2CCNCC2)c(F)cc1Nc1nc(Nc2ccccc2P(C)(C)=O)c2cc[nH]c2n1	5.65	< 4.60	4.95
CP(C)(=O)c1ccccc1Nc1nc(Nc2ccc(N3CCNCC3)cc2)nc2[nH]ccc12	6.28	5.08	5.36
CP(C)(=O)c1ccccc1Nc1nc(Nc2cnn(CC(F)F)c2)nc2[nH]ccc12	5.12	5.36	5.46
CP(C)(=O)c1ccccc1Nc1nc(Nc2ccc(C(=O)N3CCOCC3)cc2)nc2[nH]ccc12	5.01	5.05	4.84
CP(C)(=O)c1ccccc1Nc1nc(Nc2ccc(C(=O)NC3CCNCC3)cc2)nc2[nH]ccc12	5.53	< 4.60	4.75

Reference: ChEMBL document CHEMBL4311976, “Design, synthesis and biological evaluation of novel 7H-pyrrolo[2,3-d]pyrimidine derivatives as potential FAK inhibitors and anticancer agents” (Eur J Med Chem, 2019)
